This note sets out measurements from US20260274891A1, “¿ OPIOID RECEPTOR AGONIST AND USE THEREOF” (CHENGDU AODA BIOTECHNOLOGY CO., LTD., priority 2023, published 2026).

Square brackets hold non-standard residues; d marks the D form. Side chains are listed from the residue outwards. Peptide text beside a SMILES is read from it. * marks the point of attachment. X21 = NCCCC[C@H](NC(=O)[C@H](CCCCN)NC(=O)C1(N)CCN(*)CC1)C(N)=O; X28 = NCCCC[C@H](NC(=O)[C@H](CCCCN)NC(=O)C1(N)CCN(*)CC1)C(=O)O; X12 = CCOc1ccc(C[C@@H](NC(=O)[C@H](N)Cc2ccccc2)C(=O)*)cc1; Piperidinyl(4-NH2,4-CONH2) = NC(=O)C1(N)CCN(*)CC1; X4 = NCCCC[C@H](NC(=O)C1(N)CCN(*)CC1)C(=O)O; X6 = NCCCC[C@H](NC(=O)C1(N)CCN(*)CC1)C(N)=O; Api = NC1(C(=O)O)CCNCC1

The assay addresses T1, human κ opioid receptor (OPRK1) (Homo sapiens, UniProt P41145).
T1 construct: expressed in transfected cells; host or cells: CHO-K1
In words: Determination of activities of κ receptor agonists: inhibition of forskolin-stimulated cAMP release (HTRF) in stably transfected CHO-K1 cells. It is filed as cell-based. The following applies: for Relative Activity %: relative to Difelikefalin = 100.0. From the text: Gi-coupled human κ opioid receptor (OPRK1), upon stimulation with its specific opioid receptor agonists, can inhibit the intracellular adenylate cyclase pathway, and decrease cAMP levels. Forskolin can stimulate cAMP release in cell lines highly expressing opioid receptors. By stimulating cell lines stably transfected with opioid receptors, the inhibitory effect of a test compound on forskolin-stimulated cAMP release can be measured to determine the activity of the compound. The relative light units (RLU) from the cells after stimulation with different doses were measured via the homogeneous time-resolved fluorescence technique (HTRF), and the EC50 value of the agonist was subsequently calculated. This activity determination method is a currently commonly used method for determining the activities of opioid receptor agonists at home and abroad.
A CHO-K1 cell line stably expressing opioid receptors was used. Stably transfected cells were stimulated with various concentrations of agonists (under the stimulation of a certain concentration of forskolin). The relative light units from the cells after stimulation with different doses were measured, from which the EC50 value of the agonist was subsequently obtained by calculation.
For orientation: In TR-FRET formats the signal depends on donor and acceptor labels being close together.

T1 sequence (P41145 whole entry): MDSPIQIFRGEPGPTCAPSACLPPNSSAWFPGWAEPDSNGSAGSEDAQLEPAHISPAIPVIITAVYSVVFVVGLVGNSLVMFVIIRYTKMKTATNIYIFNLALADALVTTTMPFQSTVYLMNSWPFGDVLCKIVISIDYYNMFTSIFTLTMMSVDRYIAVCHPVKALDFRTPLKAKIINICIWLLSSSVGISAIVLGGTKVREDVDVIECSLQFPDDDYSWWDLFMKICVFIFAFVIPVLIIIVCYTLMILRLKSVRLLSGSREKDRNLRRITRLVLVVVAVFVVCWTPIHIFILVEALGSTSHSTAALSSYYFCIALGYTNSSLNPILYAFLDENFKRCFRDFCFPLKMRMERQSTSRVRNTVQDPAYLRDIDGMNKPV

`CCOc1ccc(C[C@@H](NC(=O)[C@H](N)Cc2ccccc2)C(=O)N[C@H](CC(C)C)C(=O)N[C@H](CCCCN)C(=O)N2CCC(N)(C(N)=O)CC2)cc1` [Compound 1, D-Phe-D-Tyr(Et)-D-Leu-D-Lys-4-aminopiperidine-4-carboxylicacid-NH2] (H-[dF][dY](Et)[dL][dK]-{Piperidinyl(4-NH2,4-CONH2)}; N-terminus assumed): a half-maximal response (EC50) required 0.116 nM and the “Relative Activity %” value was found to be 524.8%.
For `CCOc1ccc(C[C@@H](NC(=O)[C@H](N)Cc2ccccc2)C(=O)N[C@H](CC(C)C)C(=O)N[C@H](CCCCN)C(=O)N2CCC(N)(C(=O)N[C@@H](CCCCN)C(N)=O)CC2)cc1` [Compound 3, D-Phe-D-Tyr(Et)-D-Leu-D-Lys-4-aminopiperidine-4-carboxamide-Lys-NH2] (H-[dF][dY](Et)[dL][dK]-X6; N-terminus assumed) the same measures were 0.0394 nM and 1541.1%.
For `CCOc1ccc(C[C@@H](NC(=O)[C@H](N)Cc2ccccc2)C(=O)N[C@H](CC(C)C)C(=O)N[C@H](CCCCN)C(=O)N2CCC(N)(C(=O)N[C@@H](CCCCN)C(=O)O)CC2)cc1` [Compound 4, D-Phe-D-Tyr(Et)-D-Leu-D-Lys-4-aminopiperidine-4-carboxamide-Lys-OH] (H-[dF][dY](Et)[dL][dK]-X4; N-terminus assumed) the same measures were 0.0399 nM and 1521.8%.
For `CCOc1ccc(C[C@@H](NC(=O)[C@H](N)Cc2ccccc2)C(=O)N[C@H](CC(C)C)C(=O)N[C@H](CCCCN)C(=O)N2CCC(N)(C(=O)N[C@@H](CCCCN)C(=O)N[C@@H](CCCCN)C(N)=O)CC2)cc1` [Compound 5, D-Phe-D-Tyr(Et)-D-Leu-D-Lys-4-aminopiperidine-4-carboxamide-Lys-Lys-NH2] (H-[dF][dY](Et)[dL][dK]-X21; N-terminus assumed) the same measures were 0.041 nM and 1481.0%.
In the case of `CCOc1ccc(C[C@@H](NC(=O)[C@H](N)Cc2ccccc2)C(=O)N[C@H](CC(C)C)C(=O)N[C@H](CCCCN)C(=O)N2CCC(N)(C(=O)N[C@@H](CCCCN)C(=O)N[C@@H](CCCCN)C(=O)O)CC2)cc1` [Compound 6, D-Phe-D-Tyr(Et)-D-Leu-D-Lys-4-aminopiperidine-4-carboxamide-Lys-Lys-OH] (H-[dF][dY](Et)[dL][dK]-X28; N-terminus assumed), the EC50 was found to be 0.0402 nM and the “Relative Activity %” value was found to be 1510.4%.
Take `CCOc1ccc(C[C@@H](NC(=O)[C@H](N)Cc2ccccc2)C(=O)N[C@H](CC(C)C)C(=O)N[C@H](CCCCN)C(=O)N2CCC(N)(C(=O)N[C@@H](CCCCN)C(=O)N[C@@H](CCCCN)C(=O)N[C@@H](CCCCN)C(=O)N[C@@H](CCCCN)C(=O)O)CC2)cc1` [Compound 10, D-Phe-D-Tyr(Et)-D-Leu-D-Lys-4-aminopiperidine-4-carboxamide-Lys-Lys-Lys-Lys-OH] (H-[Api]([dK-dL-X12])KKKK-OH; N-terminus assumed): the concentration giving a half-maximal response (EC50) turned out to be 0.0463 nM and the “Relative Activity %” value was determined as 1311.4%.
For `CCOc1ccc(C[C@@H](NC(=O)[C@H](N)Cc2ccccc2)C(=O)N[C@H](CC(C)C)C(=O)N[C@H](CCCCN)C(=O)N2CCC(N)(C(=O)N[C@@H](CCCCN)C(=O)N[C@@H](CCCCN)C(=O)N[C@@H](CCCCN)C(=O)N[C@@H](CCCCN)C(=O)N[C@@H](CCCCN)C(N)=O)CC2)cc1` [Compound 11, D-Phe-D-Tyr(Et)-D-Leu-D-Lys-4-aminopiperidine-4-carboxamide-Lys-Lys-Lys-Lys-Lys-NH2] (H-[Api]([dK-dL-X12])KKKKK-NH2; N-terminus assumed) the same measures were 0.0534 nM and 1137.1%.

The term EC50 denotes the concentration at which the effect is half-maximal. A lower EC50 goes with a more potent agent.
